In PubChem BioAssay (NCI):
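Cultured in 96-well plates, cells were exposed to test compound for 48 hours across five concentrations. At the TGI there is no net growth.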

Tested on: P388 leukemia
Test: NCI tumour cell line growth inhibition, 48 h

SMILES: O=NN(CCCl)C(=O)NC1CCCCC1
- TGI: 34.4 µM

SMILES: Nc1nc(=S)c2[nH]cnc2[nH]1
- TGI: 6.43 µM
